From patent US20110124607A1, “COMPOSITION FOR REGULATION CELLULAR SENESCENCE COMPRISING LYSOPHOSPHATIDIC ACID AND INHIBITOR OF ADENYLYL CYCLASE AS ACTIVE INGREDIENTS” (priority 2008, published 2011)

How the values were obtained:
Type in all cases: cell-based, human
p21waf1/cip1 = test: Immuno-blotting of p21waf1/cip1; details: for p21 expression after suppressing PKA: senescent cells pre-treated with 10 mM PKA inhibitor Rp-cAMP for one hour; for p21 expression (immuno-blotting): senescent cells, 30 μM LPA, 300 μM ACI, 10 mM AMPKI, 10 mM AICAR
Procedure: (A) and (B): Young and senescent cells were serum-starved for 2 days, followed by treatment with 10 mM of AMPK inhibitor […]) or 10 mM of AMPK activator AICAR(B) for 4 days. Proteins were extracted from the treated cells and the levels of AMPKα and p-Thr172-AMPKα, total p53, p-Ser15-p53 and […] measured by immuno-blotting. (C) and (D): Young cells (C) and senescent cells (D) were treated with 10 mM AMPKI or 10 mM AICAR and cultured for 4 days, followed by measurement of cell proliferation by cell counting. At this time, the experiment was repeated three times (p<0.001). (A) and (B) are photographs illustrating the results of immuno-blotting. Precisely, sub-cultured young cells (PD 18: A) and senescent cells (PD 64: B) were treated with 30 μM of LPA […] and ACI singly or together, followed by further culture for 1, 2, and 4 days. Proteins were extracted from the cultured cells and the levels of AMPKα, […] β-actin were quantified by immuno-blotting. (A) and (B) are photographs illustrating the results of immuno-blotting. Precisely, senescent cells (PD 64) were pre-treated with 10 mM of PKA inhibitor Rp-cAMP for one hour, followed by treatment with LPA(A) or ACI(B). After culturing the cells for 1, 2, and 4 days, proteins were extracted from the cultured cells and the levels of AMPKα, […] β-actin were quantified by immuno-blotting using 45 μg of the protein. To analyse protein expression, human fibroblasts were lysed in cold lysis buffer (25 mM Hepes, pH 8.0, 150 mM NaCl, 1 mM EDTA, 1 mM Na3VO4, 1 mM NaF, 1% Triton X-100 and protease inhibitors), followed by centrifugation at 4° C. at 9,000 rpm for 10 minutes to obtain supernatant. Protein in the extract was quantified […]. SDS-PAGE electrophoresis was performed with equal amount of the protein (45 μg) to separate. The separated protein was transferred onto NC membrane from the electrophoresis gel. Non-specific protein binding was blocked by blocking the blot (transferred NC membrane) using TTBS […] containing 5% skim milk for one hour. Then, antigen-antibody reaction was induced with diluted primary antibody at 4° C. for overnight. The blot was washed with TTBS, followed by reaction with horseradish peroxidase conjugated anti-IgGs diluted in TTBS containing 5% skim milk (1:5000) at room temperature for one hour. The blot was washed again with TTBS to eliminate non-specific binding of antigen-antibody. Photographs were developed/printed on X-ray film (Kodak) using ECL kit (Pierce) containing peroxidase substrate to identify each protein.

cyclin D1 = test: Immunofluorescent staining of cyclin D1; details: 30 μM LPA
Procedure: FIG. 3 is a set of photographs illustrating the effect of LPA and ACI on the expressions of p21 and cyclin-D1 in young and senescent cells. Particularly, a-f, g-l and m-r are photographs illustrating that sub-cultured young cells (PD 20: Y) and senescent cells (PD 65: S) were serum-starved for 48 hours respectively, followed by treatment of LPA (a-f) and ACI (g-l) singly or together (m-r), and after culturing for 1, 2, and 4 days, the cells were fixed in 4% hydrogen peroxide, and stained with p21waf1/cip1 (A) and cyclin D1 (B) antibodies, followed by confirming immunofluorescence. At this time, nucleus was stained with DAPI.
Coverslips were placed on 24 well plate on which required amounts of young and senescent cells were distributed. Media were eliminated and the treated cells were washed with PBS twice. Then, the cells were fixed with 4% hydrogen peroxide. Non-specific protein staining was blocked using PBS containing 2% BSA (blocking serum). The cells were stained with primary antibody such as anti-AMPKα, anti-p-Thr172-AMPKα, anti-p-Ser485/491-AMPKα, anti-p53, anti-p-Ser15-p53, anti-p21waf1/cip1, and anti-cyclin D1. To stain nucleus, DAPI (1:1000) was also added, followed by observation under Zeiss LSM 510 laser scanning microscope. […]

p-Ser485/491-AMPKα = test: Immuno-blotting of p-Ser485/491-AMPKα; details: for p-Ser485/491-AMPKα expression after suppressing PKA: senescent cells pre-treated with 10 mM PKA inhibitor Rp-cAMP for one hour; for Ser485/491-AMPKα phosphorylation: 30 μM LPA, 300 μM ACI, up to day 4
Procedure: (A) and (B) are photographs illustrating the results of immuno-blotting. Precisely, sub-cultured young cells (PD 18: A) and senescent cells (PD 64: B) were treated with 30 μM of LPA […] and ACI singly or together, followed by further culture for 1, 2, and 4 days. Proteins were extracted from the cultured cells and the levels of AMPKα, p-Thr172-AMPKα, p-Ser485/491-AMPKα, p53, p-Ser15-p53, p21waf1/cip1 and β-actin were quantified by immuno-blotting.
(A) and (B) are photographs illustrating the results of immuno-blotting. Precisely, senescent cells (PD 64) were pre-treated with 10 mM of PKA inhibitor Rp-cAMP for one hour, followed by treatment with LPA(A) or ACI(B). After culturing the cells for 1, 2, and 4 days, proteins were extracted from the cultured cells and the levels of AMPKα, p-Thr172-AMPKα, p-Ser485/491-AMPKα, p53, p-Ser15-p53, p21waf1/cip1 and β-actin were quantified by immuno-blotting using 45 μg of the protein.
To analyse protein expression, human fibroblasts were lysed in cold lysis buffer (25 mM Hepes, pH 8.0, 150 mM NaCl, 1 mM EDTA, 1 mM Na3VO4, 1 mM NaF, 1% Triton X-100 and protease inhibitors), followed by centrifugation at 4° C. at 9,000 rpm for 10 minutes to obtain supernatant. Protein in the extract was quantified […]. SDS-PAGE electrophoresis was performed with equal amount of the protein (45 μg) to separate. The separated protein was transferred onto NC membrane from the electrophoresis gel. Non-specific protein binding was blocked by blocking the blot (transferred NC membrane) using TTBS […] containing 5% skim milk for one hour. Then, antigen-antibody reaction was induced with diluted primary antibody at 4° C. for overnight. The blot was washed with TTBS, followed by reaction with horseradish peroxidase conjugated anti-IgGs diluted in TTBS containing 5% skim milk (1:5000) at room temperature for one hour. The blot was washed again with TTBS to eliminate non-specific binding of antigen-antibody. Photographs were developed/printed on X-ray film (Kodak) using ECL kit (Pierce) containing peroxidase substrate to identify each protein.

| Compound | p21 expression after suppressing PKA (p21waf1/cip1) | p21 expression (immuno-blotting) (p21waf1/cip1) | cyclin D1 expression (immunofluorescence) (cyclin D1; senescent cells, 300 μM ACI) | p-Ser485/491-AMPKα expression after suppressing PKA (p-Ser485/491-AMPKα) | Ser485/491-AMPKα phosphorylation (p-Ser485/491-AMPKα; senescent cells) | Ser485/491-AMPKα phosphorylation (p-Ser485/491-AMPKα; young cells) | cyclin D1 expression (immunofluorescence) (cyclin D1; young cells) |
| --- | --- | --- | --- | --- | --- | --- | --- |
| Nc1ncnc2c1ncn2C1CCCO1 (stereo not drawn) [ACI, 9-(tetrahydro-2′-furyl)adenine] | not changed | reduced | reduced | not changed | did not affect | reduced |  |
| lysophosphatidic acid [LPA] | not changed at all | reduced |  | not changed at all | gradually increased | reduced | decrease |
